How the values were obtained:
human melanoma (HT168M1) = experiment: subcutaneous melanoma tumor model; type: in vivo, CB17/scid mice; details: 40 mg/kg per os, once a day five days per week for 3 weeks from day 7; FIG. 8
Description: Slightly anesthetized (diethyl ether narcosis) adult male CB17/scid mice born with immunodeficiency were subcutaneously (s.c.) implanted with 8×10^5 cells from in vitro human melanoma (HT168M1) cultures. After tumor cell inoculation animals were randomly assigned into three groups and their ears were marked. From the 7th day after the tumor cell inoculation mice were treated once a day five days per week for 3 weeks with compound 2 (40 mg/kg), or with compound 3b (40 mg/kg) per os by gavage. Control animals were treated with appropriate dilution of the carrier (DMSO) in a similar manner with similar frequency. Body weight changes were monitored once a week for each animal. When subcutaneous tumor reached palpable size its dimensions were also detected with caliper. Tumor volume was estimated by the formula π/6×a×b^2, where “a” is the longer and “b” is the shorter diameter. 30 days after implantation animals were sacrificed by bleeding in Nembutal (75 mg/kg) anesthesia. Evaluation was based on the mass of the primary tumor.
In this experiment the effect of compound 2 and compound 3b was tested in oral administration at the same dose (40 mg/kg).

tumor necrosis factor = details: Japanese patent application JP10072346; cited from earlier work
[1] = Japanese patent JP10072346; cited from earlier work

SMILES: CC(C)c1cccc(C(C)C)c1N1C(=O)c2c(F)c(F)c(F)c(F)c2C1=O [Compound 2, 2-(2,6-diizopropylphenyl)-4,5,6,7-tetrafluorisoindolin-1,3-dione]
- effect on growth of the subcutaneous primary tumor (tumor mass) (human melanoma (HT168M1)): not significant
- production of tumor necrosis factor (tumor necrosis factor): inhibits the production of tumor necrosis factor
- anti-inflammatory effect [1]: has anti-inflammatory effect

— US8232299B2, “Phthalimide derivatives that influence cellular vesicular systems, pharmaceutical compositions, and use thereof” (Avidin Kft., priority 2007, dated 2012)
